Tests used:
Type in all cases: functional
K562 = assay: Cytotoxicity against human K562 cells after 72 hrs by SRB assay; conditions: K562, 72 h
A549 = assay: Cytotoxicity against human A549 cells after 72 hrs by SRB assay; conditions: A549, 72 h
SK-MEL-28 = assay: Cytotoxicity against human SK-MEL-28 cells after 72 hrs by SRB assay; conditions: SK-MEL-28, 72 h
HT-29 = assay: Cytotoxicity against human HT29 cells after 72 hrs by SRB assay; conditions: HT-29, 72 h
LoVo [1] = assay: Cytotoxicity against human LoVo cells after 72 hrs by SRB assay
LoVo [2] = assay: Cytotoxicity against human doxorubicin-resistant LoVo cells after 72 hrs by SRB assay
DU-145 = assay: Cytotoxicity against human DU145 cells after 72 hrs by SRB assay; conditions: DU-145, 72 h
LNCaP = assay: Cytotoxicity against human LNCAP cells after 72 hrs by SRB assay
SK-BR-3 = assay: Cytotoxicity against human SK-BR-3 cells after 72 hrs by SRB assay; conditions: SK-BR-3, 72 h
SK-OV-3 = assay: Cytotoxicity against human SKOV3 cells after 72 hrs by SRB assay; conditions: SK-OV-3, 72 h
[3] = Cytotoxicity against human IGROV cells after 72 hrs by SRB assay
[4] = Cytotoxicity against human IGROV-ET cells after 72 hrs by SRB assay
PANC-1 = assay: Cytotoxicity against human PANC1 cells after 72 hrs by SRB assay; conditions: PANC-1, 72 h

Measured: GI50

C[C@H]1CC[C@@]23C[C@]2(C)CCC[C@@H]3[C@@]1(C)CC[C@@]1(C)CCn2cnc3ncnc(c32)N1 [ASMARINE J]
5 µM: K562 | A549 | SK-MEL-28 | HT-29 | LoVo [1] | LoVo [2] | DU-145 | LNCaP | SK-BR-3 | SK-OV-3 | [3] | [4] | PANC-1

C[C@H]1CC[C@@]23C[C@]2(C)CCC[C@@H]3[C@@]1(C)CC[C@@]1(C)CCn2cnc3ncnc(c32)N1O [ASMARINE I]
5 µM: K562 | A549 | SK-MEL-28 | HT-29 | LoVo [1] | LoVo [2] | DU-145 | LNCaP | SK-BR-3 | SK-OV-3 | [3] | [4] | PANC-1

C=C1CCC[C@@H]2[C@@](C)(CC[C@@]3(C)CCn4cnc5ncnc(c54)N3)[C@H](C)CC[C@@]12C [ASMARINE K]
5 µM: K562 | A549 | SK-MEL-28 | HT-29 | LoVo [1] | LoVo [2] | DU-145 | LNCaP | SK-BR-3 | SK-OV-3 | [3] | [4] | PANC-1
